Test results: patent publication US20080140036A1, “Antimicrobial Composition” (priority 2004, published 2008)

Key:
MRSA 20 = assay: ZOI of triclosan vapours (vapour phase)
MRSA 14 = assay: ZOI of triclosan vapours (vapour phase)
S. epidermidis NCTC 7944 = assay: ZOI of triclosan vapours (vapour phase); assay type: cell-based
[1] = tested on: EMRSA m97 271 031 phage group 1; assay: ZOI of triclosan vapours (vapour phase)
MSSA (47) = assay: ZOI of triclosan vapours (vapour phase); assay type: cell-based, S. aureus
[2] = tested on: EMRSA m97 271 088 phage group 6; assay: ZOI of triclosan vapours (vapour phase)
[3] = tested on: EMRSA m97 271 032 phage group 10; assay: ZOI of triclosan vapours (vapour phase)
Strain T1 MSSA [4] = assay: MIC of triclosan (direct contact); assay type: cell-based, S. aureus
Strain T4 MSSA [5] = assay: ZOI of triclosan vapours (vapour phase); assay type: cell-based, S. aureus
[6] = tested on: EMRSA m97 271 047 phage group 8; assay: ZOI of triclosan vapours (vapour phase)
[7] = tested on: EMRSA m97 271 032 phage group 10; assay: MIC of triclosan (direct contact)
S. aureus NCBC 11882 = assay: ZOI of triclosan vapours (vapour phase); assay type: cell-based
MRSA 13 = assay: ZOI of triclosan vapours (vapour phase)
[8] = tested on: EMRSA g96 138 744 phage group 16; assay: ZOI of triclosan vapours (vapour phase)
[9] = tested on: S. saprophyticus NCIMB 8711; assay: ZOI of triclosan vapours (vapour phase); assay type: cell-based
[10] = tested on: EMRSA g96 136 210 phage group 17; assay: ZOI of triclosan vapours (vapour phase)
[11] = tested on: EMRSA m97 271 042 phage group 12; assay: ZOI of triclosan vapours (vapour phase)
MSSA (4) = assay: ZOI of triclosan vapours (vapour phase); assay type: cell-based, S. aureus
Strain T4 MSSA [12] = assay: MIC of triclosan (direct contact); assay type: cell-based, S. aureus
MRSA 16 = assay: ZOI of triclosan vapours (vapour phase)
Strain T1 MSSA [13] = assay: ZOI of triclosan vapours (vapour phase); assay type: cell-based, S. aureus
[14] = tested on: S. saprophyticus NCIMB 8711; assay: MIC of triclosan (direct contact); assay type: cell-based
[15] = tested on: S. haemolyticus NCTC 11042; assay: ZOI of triclosan vapours (vapour phase); assay type: cell-based
[16] = tested on: EMRSA m972 71041 phage group 5; assay: ZOI of triclosan vapours (vapour phase)
[17] = tested on: EMRSA j95 922 phage group 3; assay: ZOI of triclosan vapours (vapour phase)
[18] = tested on: EMRSA m97 271 064 phage group 14; assay: ZOI of triclosan vapours (vapour phase)
[19] = tested on: EMRSA m97 271 038 phage group 2; assay: ZOI of triclosan vapours (vapour phase)
[20] = tested on: Oxford S. aureus NCTC 6571; assay: ZOI of triclosan vapours (vapour phase); assay type: cell-based
MSSA (46) = assay: ZOI of triclosan vapours (vapour phase); assay type: cell-based, S. aureus
[21] = tested on: all strains of staphylococci; assay: MIC of triclosan (direct contact), all strains; assay type: cell-based

## Oc1cc(Cl)ccc1Oc1ccc(Cl)cc1Cl [triclosan]
MRSA 20; average
  ZOI Average: 55 mm
MRSA 20; replicate 1
  ZOI 1: 55 mm
MRSA 20; replicate 2
  ZOI 2: 55 mm
MRSA 14; average
  ZOI Average: 55 mm
MRSA 14; replicate 1
  ZOI 1: 55 mm
MRSA 14; replicate 2
  ZOI 2: 55 mm
S. epidermidis NCTC 7944; average
  ZOI Average: 50.5 mm
S. epidermidis NCTC 7944; replicate 1
  ZOI 1: 50 mm
S. epidermidis NCTC 7944; replicate 2
  ZOI 2: 51 mm
[1]; average
  ZOI Average: 41 mm
[1]; replicate 1
  ZOI 1: 42 mm
[1]; replicate 2
  ZOI 2: 40 mm
MSSA (47); average
  ZOI Average: 51.5 mm
MSSA (47); replicate 1
  ZOI 1: 52 mm
MSSA (47); replicate 2
  ZOI 2: 51 mm
[2]; average
  ZOI Average: 52 mm
[2]; replicate 1
  ZOI 1: 52 mm
[2]; replicate 2
  ZOI 2: 52 mm
[3]; average
  ZOI Average: 49 mm
[3]; replicate 1
  ZOI 1: 49 mm
[3]; replicate 2
  ZOI 2: 49 mm
Strain T1 MSSA [4]
  MIC: 0.5 Mg ml^−1−
Strain T4 MSSA [5]; average
  ZOI Average: 51 mm
Strain T4 MSSA [5]; replicate 1
  ZOI 1: 50 mm
Strain T4 MSSA [5]; replicate 2
  ZOI 2: 52 mm
[6]; average
  ZOI Average: 52 mm
[6]; replicate 1
  ZOI 1: 52 mm
[6]; replicate 2
  ZOI 2: 52 mm
[7]
  MIC: 0.5 Mg ml^−1−
S. aureus NCBC 11882; average
  ZOI Average: 48 mm
S. aureus NCBC 11882; replicate 1
  ZOI 1: 47 mm
S. aureus NCBC 11882; replicate 2
  ZOI 2: 49 mm
MRSA 13; average
  ZOI Average: 47 mm
MRSA 13; replicate 1
  ZOI 1: 47 mm
MRSA 13; replicate 2
  ZOI 2: 47 mm
[8]; average
  ZOI Average: 50 mm
[8]; replicate 1
  ZOI 1: 50 mm
[8]; replicate 2
  ZOI 2: 50 mm
[9]; average
  ZOI Average: 37.5 mm
[9]; replicate 1
  ZOI 1: 33 mm
[9]; replicate 2
  ZOI 2: 42 mm
[10]; average
  ZOI Average: 47 mm
[10]; replicate 1
  ZOI 1: 47 mm
[10]; replicate 2
  ZOI 2: 47 mm
[11]; average
  ZOI Average: 45 mm
[11]; replicate 1
  ZOI 1: 45 mm
[11]; replicate 2
  ZOI 2: 45 mm
MSSA (4); average
  ZOI Average: 51 mm
MSSA (4); replicate 1
  ZOI 1: 50 mm
MSSA (4); replicate 2
  ZOI 2: 52 mm
Strain T4 MSSA [12]
  MIC: 0.25 Mg ml^−1−
MRSA 16; average
  ZOI Average: 55.5 mm
MRSA 16; replicate 1
  ZOI 1: 55 mm
MRSA 16; replicate 2
  ZOI 2: 56 mm
Strain T1 MSSA [13]; average
  ZOI Average: 45.5 mm
Strain T1 MSSA [13]; replicate 1
  ZOI 1: 46 mm
Strain T1 MSSA [13]; replicate 2
  ZOI 2: 45 mm
[14]
  MIC: 2 Mg ml^−1−
[15]; average
  ZOI Average: 46 mm
[15]; replicate 1
  ZOI 1: 48 mm
[15]; replicate 2
  ZOI 2: 44 mm
[16]; average
  ZOI Average: 55 mm
[16]; replicate 1
  ZOI 1: 55 mm
[16]; replicate 2
  ZOI 2: 55 mm
[17]; average
  ZOI Average: 54 mm
[17]; replicate 1
  ZOI 1: 55 mm
[17]; replicate 2
  ZOI 2: 53 mm
[18]; average
  ZOI Average: 35 mm
[18]; replicate 1
  ZOI 1: 35 mm
[18]; replicate 2
  ZOI 2: 35 mm
[19]; average
  ZOI Average: 57 mm
[19]; replicate 1
  ZOI 1: 57 mm
[19]; replicate 2
  ZOI 2: 57 mm
[20]; average
  ZOI Average: 51 mm
[20]; replicate 1
  ZOI 1: 50 mm
[20]; replicate 2
  ZOI 2: 52 mm
MSSA (46); average
  ZOI Average: 45 mm
MSSA (46); replicate 1
  ZOI 1: 45 mm
MSSA (46); replicate 2
  ZOI 2: 45 mm
[21]
  concentration able to inhibit all strains of staphylococci: 2 µg/mL
